For 90 compounds, melting point results are on record in a melting point compilation (Tetko et al.; mined from patent text by program, amines drawn as free bases though some values may be those of a salt).

One may read the melting point as the temperature of the solid-liquid transition.

For `CN1CCc2c(Br)ccc([N+](=O)[O-])c2C1`, the melting point lay within 85 to 87 °C. The figure for `CNc1nc(SC)ncc1CO` is 155 to 157 °C. Compound `COC(=O)c1nn(-c2cccnc2)cc1N` returned a melting point of 102 to 108 °C. `Fc1cccc(NC2CN([C@H]3CC[C@@H](c4c[nH]c5ccc(F)cc54)CC3)C2)c1` yielded a melting point of 67 to 70 °C. The figure for `CC(=O)OCC1CCn2c(c(C3=C(c4cn(C)c5ccc(Br)cc45)C(=O)OC3=O)c3ccccc32)C1` (stereo not given) is 215 to 220 °C; for `CC12CCC3c4ccc(OCc5ccccc5)cc4CCC3C1CCC2=O` (stereo not given) it is 126 to 127 °C; for `COc1ccc(C(=O)N(C)CC(O)COc2cccc3[nH]c4ccccc4c23)cc1OC` (stereo not given) it is 77 to 80 °C.

Turning to `CCC(=O)C1OC(O)C(O)C1OCc1ccccc1Cl` (stereo not given), the melting point was in the range of 130 to 133 °C. The figure for `O=C(NC(CCc1ccccc1)C(=O)Nc1n[nH]c(=S)s1)OCC1c2ccccc2-c2ccccc21` (stereo not given) is 186 to 187 °C; for `N#Cc1ccc(-c2cccc(-c3cn4cc(C#N)ccc4n3)c2)cc1` it is 290 to 292 °C; for `O=S(=O)(COc1ncc(Cl)cn1)c1ncc(Cl)cn1` it is 135 °C.

In turn, `Cc1cc(Cl)nnc1-c1ccccc1` registered a melting point of 122 °C. As for `COc1ccc(C#N)c(O)c1`, the figure is 169 to 171 °C; as for `Cc1c(OCC(F)(F)F)ccnc1CSc1nc2cc(N3CCN(C)CC3)c(F)cc2[nH]1`, 109 to 110 °C; as for `Cc1ccccc1-c1cc(N2CCN(C)CC2)ncc1N(C)C(=O)C(C)(C)c1cc(C(F)(F)F)cc(C(F)(F)F)c1`, 155 to 157 °C.

Compound `CCCc1nc2c(N)nc3cc(-c4cccc(CN)c4)ccc3c2s1` yielded a melting point of 168 to 171 °C. `CCCc1nc(C(C)(C)O)c(-c2nnn[nH]2)n1Cc1ccc(-c2ccccc2C(=O)C(=O)O)cc1` yielded a melting point of 169 to 170 °C. As for `Cc1[nH]c(=O)n(-c2cc(C(=O)OC(C)C)c(Cl)cc2F)c(=O)c1SC#N`, the figure is 159 to 161 °C; as for `CN(N=Cc1cnc[nH]1)C(=O)c1[nH]c2ccccc2c1-c1ccccc1`, 248 to 250 °C. The figure for `O=c1ccn(-c2cc3[nH]c(=O)c(=O)[nH]c3cc2[N+](=O)[O-])cc1Cl` is more than 300 °C; for `CN(C)C(=O)c1cccn1N1C(=O)c2ccccc2C1=O` it is 153 to 155 °C. `OCC1OC(n2cnc3c(SCc4ccc5nc[nH]c5c4)ncnc32)C(O)C1O` (stereo not given) returned a melting point of 196 to 198 °C.

Compound `Cc1nc2cc(NCC(=O)C(C)(C)C)ccc2s1` displayed a melting point of 108 to 111 °C. The figure for `CC[C@H](C)[C@H](Nc1nc(OC)ns1)C(=O)N1CCC[C@H]1C(=O)O` is 112 to 114 °C; for `CC(=O)Nc1nc(C)c(S(=O)(=O)N(CCO)CCO)s1` it is 204 °C. As for `CCC(=O)N[C@H]1CC[C@H](CCN2CCN(c3nccc4c3OCC4)CC2)CC1`, the figure is 196 °C; as for `Cc1cc(C)nc(NC(=O)NS(=O)(=O)c2ccccc2C(=O)O)n1`, 160 °C.

`Cc1cc(Cl)cc(CO[C@H]2CCCN(Cc3nc(=O)[nH][nH]3)[C@H]2c2ccccc2)c1` displayed a melting point of 227 to 228 °C.

Take `CCC1C(C)=NN=C(c2ccc(OC)c(OC)c2)c2cc(C)ccc21` (stereo not given): the melting point fell in the range of 156 to 158 °C. `O=C(OCCO)c1ncn2c1[C@@H]1CCCN1C(=O)c1sccc1-2` displayed a melting point of 182 to 184 °C. As for `CNC(=O)C1CCN(c2cc(-c3ccc(Cl)cc3)nc3ccc(F)cc23)CC1`, the figure is 279 °C; as for `COC(=O)CC[C@@H](CF)NC(=O)c1ccccc1`, 99.5 to 100 °C; as for `CC1(C)CCC(C)(C)c2cc(O)c(N)cc21`, 225 °C.

Consider `Cc1ccc(-c2nc(O)cc(-c3ccccc3)n2)cc1`, for which the melting point was in the range of 282 to 283 °C.

`Oc1ccc(-c2nc(-c3ccc(Sc4ccccc4)cc3)nc(-c3ccc(O)cc3O)n2)c(O)c1` displayed a melting point of more than 250 °C. As for `Ic1ccc2c(c1)ncn2-c1cccc(-c2ccccn2)c1`, the figure is 157 to 158 °C; as for `CCOC(=O)c1c(Cl)c2cccnc2[nH]c1=O`, 172 °C.

Take `Cc1ccccc1C1c2ccccc2S(=O)(=O)N1C` (single isomer, unassigned; (+)): the melting point is 152 °C. As for `OCCSc1nc(-c2ccccc2)c(-c2ccccc2)s1`, the figure is 77 to 79 °C. The figure for `Cc1cc(C)c2c(c1)cc(C(=O)O)n2CC(=O)OC(C)(C)C` is 210 °C. The figure for `Nc1ccn(C[C@@H]2O[C@H](CO)[C@@H](O)[C@@H]2O)c(=O)n1` is 230 to 232 °C; for `CC1Nc2cc(Br)ccc2NC1=O` (stereo not given) it is 133 to 135 °C; for `C=CCOc1ccc(-c2cc3[nH]c4c(c(=O)n3n2)CN(C2CCCCC2)C4=O)cc1` it is more than 320 °C. In the case of `COc1cc2c(cc1OC)C(=CN1CCN(C(=O)c3ccco3)CC1)C(=O)N2`, the melting point is 158 to 160 °C. Consider `COCC(O)Cn1ncc([N+](=O)[O-])n1` (stereo not given), for which the melting point fell in the range of 58.2 to 59 °C. `O=C(O)c1cccc(C(=O)C=Cc2ccc(OCc3ccc4ccccc4n3)cc2)c1O` had a melting point of 233 to 235 °C. The figure for `COC(=O)c1c(N)cc(Cl)c(Cl)c1Cl` is 123 to 124 °C; for `O=C(O)c1ccc(-c2coc(-c3ccc(C(F)(F)F)cc3)n2)cc1` it is 294 to 295 °C. As for `CCCOCCOc1cccc2oc(C(=O)N3CCN(C)CC3)cc(=O)c12`, the figure is 78 to 80 °C; as for `COC(=O)c1sc(C(C)(C)C)cc1NC(=O)Nc1ccc(F)cc1`, 160 to 162 °C. The figure for `O=C1c2ccccc2C(=O)N1OCC1COCOC1` is 98 to 106 °C; for `COc1ccc(Oc2ccc3ccc(NC(=O)c4ccccc4)nc3n2)cc1` it is 171 °C; for `O=C1c2cc([N+](=O)[O-])ccc2OCCC1Br` (stereo not given) it is 115 to 118 °C.

Compound `O=C(NCCN1CCCCC1)c1nc(NCC(c2ccccc2)c2ccccc2)c2nc[nH]c2n1` displayed a melting point of 222 °C. `COc1cccc(OC)c1-c1cc(C(=O)NC2(C(=O)O)C3CC4CC(C3)CC2C4)nn1-c1ccc(CNC(C)=O)c2ccccc12` (stereo not given) returned a melting point of 211 °C. As for `CN(C)CCCNC(CC(=O)O)C(=O)OC1CCCCC1` (stereo not given), the figure is 150 to 152 °C. The compound `CO/C(=C\c1ccc(OCCc2nc(-c3ccccc3)oc2C)c2ccsc12)C(=O)O` displayed a melting point of 189 to 190 °C. On to `CC(CC1=C(c2ccc(O)cc2)CCCNC1=O)N1CCCCC1` (stereo not given), for which the melting point lay in the range of 178 to 181 °C. The figure for `Cc1cc(Nc2cccc(C(F)(F)F)c2)nc(-n2nc(C)cc2C)n1` is 130 to 134 °C.

Compound `Cn1nc(-c2ccccc2C(F)(F)F)nc1-c1ccccc1Cl` gave a melting point of 90 to 92 °C. The figure for `COc1cc2c(cc1OC)CN(CCCSc1ccc(NC(=O)c3cccc4c(=O)c5ccccc5[nH]c34)cc1)CC2` is 182 °C; for `Nc1ncc2cc(-c3c(Br)cccc3Br)c(N)nc2n1` it is 284 to 289 °C; for `CC(=O)Nc1ccc(OCC2CO2)c(-c2nnco2)c1` (stereo not given) it is 173 to 175 °C. Turning to `CCCCCn1c2ccc(C(=S)N3CCCCC3)cc2c2ccc(OC)cc21`, the melting point was 116 to 118 °C. As to `CC(=C1SCCCS1)c1cccc(O)c1`, the melting point lay within 63 to 64 °C.

Regarding `OCCON=Cc1ccc2ccccc2n1`, the melting point was 128 °C. As for `COC(=O)c1cc(Cl)ccc1NS(=O)(=O)c1ccc(C)cc1`, the figure is 112 to 114 °C; as for `N#Cc1c(SC(F)(F)F)c(N)n(-c2c(Cl)cc(C(F)(F)F)cc2Cl)c1C#N`, 175 to 177 °C. The figure for `CC#Cc1ccc(NC(=O)c2cccnc2NCc2ccc(=O)[nH]c2)cc1C(F)(F)F` is 211 to 218 °C. As for `COCCOCCOCC(=O)Nc1cc(C(=O)O)cc([N+](=O)[O-])c1`, the figure is 136 to 137 °C; as for `Cc1c(C(F)(F)F)cc([N+](=O)[O-])c(Cl)c1[N+](=O)[O-]`, 81 to 82 °C; as for `CN=C(NC#N)C1=CC(CF)(CF)Oc2ccc([N+](=O)[O-])cc21`, 259 to 261 °C. Consider `C#CCOc1nnc(Cl)c2ccccc12`, for which the melting point fell in the range of 134 to 136 °C. As for `CC1CCC(C(C)C)C(C(=O)NC(C)(C)CO)C1` (stereo not given), the figure is 123 °C; as for `Nc1c(Cl)cc(C(O)CNCCCCCC(=O)OCCc2cccc3ccccc23)cc1Cl` (stereo not given), 60 to 61 °C.

`Cc1nc2ccccc2n(-c2ccc(N(C)C)cc2)c1=O`: the melting point fell in the range of 230 to 231 °C. As for `CCCCCCCCCCCCCCCCNC(=O)CCCO`, the figure is 89.5 to 90 °C; as for `Nc1ncc([N+](=O)[O-])cc1[N+](=O)[O-]`, 190 to 191 °C; as for `COc1nc(-c2ccc(OC(C)C)cc2)sc1C(=O)O`, 109 to 110 °C. The figure for `FC(F)(F)c1cccc(-c2ccnc(Nc3ccc4c(c3)OCCO4)c2)c1` is 139 to 140 °C; for `COc1cc(N=c2scc(-c3ccc(Cl)c(S(=O)(=O)N(C)C)c3)n2C)cc(OC)c1OC` it is 119 to 122 °C; for `COC(C)(C)c1ccc(Cl)c2nc3n(c12)CCCN3c1ccc(Cl)cc1Cl` it is 203 to 204 °C.

Take `CC(NC(=O)C(N)CC(=O)O)C(=O)NC1C(C)(C)SC1(C)C` (stereo not given): the melting point was found to be 57.2 °C. The figure for `O=C(O)CCc1oc(Cl)nc1-c1ccc(Cl)cc1` is 169 to 170 °C; for `Nc1sc2c(c1C(=O)c1ccc(Br)s1)CCCC2` it is 160 to 163 °C. The figure for `CC(C)N1C(=O)C2Cc3nc[nH]c3CN2C1=O` (stereo not given) is 149 to 157 °C.

`COc1cc(NC(=O)NC(=O)c2c(F)cccc2F)ccc1OC(F)(F)C(F)(F)c1ccc(Cl)cc1` gave a melting point of 133 to 134 °C.

The compound `CON=CNC(=O)c1ccc(C=NO)cc1C` registered a melting point of 88 to 91 °C.

As for `CCOC(=O)c1nc(N)sc1-c1ccccn1`, the melting point lay in the range of 186 to 187 °C.

`Cc1cccc2c1C[C@H](C(=O)O)[C@@H]2C` (relative stereo) had a melting point of 132 to 135 °C.
